Assay results taken from ChEMBL document CHEMBL1140941 (J Med Chem, 2009).
The source made the active and inactive calls. The calls are words filed in the database; no cut-off is given here.

How the values were obtained:
[1] = molecular target: Steroid hormone receptor ERR1 (Homo sapiens) (UniProt P11474); experiment: Antagonist activity at ERRalpha expressed in african green monkey CV1 cells by luciferase reporter gene assay; format: functional, cell-based; settings: CV-1
[2] = molecular target: T1, Peroxisome proliferator-activated receptor gamma (Homo sapiens) (UniProt P37231); experiment: Agonist activity at PPARgamma expressed in african green monkey CV1 cells co-expressing PPRE by luciferase reporter gene assay; format: functional, cell-based; settings: CV-1
T1 sequence (whole entry): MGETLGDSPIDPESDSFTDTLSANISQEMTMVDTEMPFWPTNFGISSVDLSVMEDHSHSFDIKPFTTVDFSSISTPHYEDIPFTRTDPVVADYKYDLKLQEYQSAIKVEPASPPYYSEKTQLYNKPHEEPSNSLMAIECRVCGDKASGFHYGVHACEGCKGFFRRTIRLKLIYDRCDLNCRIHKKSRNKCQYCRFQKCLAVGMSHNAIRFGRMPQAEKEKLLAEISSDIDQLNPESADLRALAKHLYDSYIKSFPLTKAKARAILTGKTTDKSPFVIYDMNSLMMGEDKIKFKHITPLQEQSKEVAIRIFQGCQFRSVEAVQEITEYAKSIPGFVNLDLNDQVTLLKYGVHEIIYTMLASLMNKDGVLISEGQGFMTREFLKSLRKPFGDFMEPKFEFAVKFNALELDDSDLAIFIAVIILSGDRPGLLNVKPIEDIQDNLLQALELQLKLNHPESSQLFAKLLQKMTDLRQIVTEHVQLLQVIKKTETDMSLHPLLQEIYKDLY

[3] = molecular target: Glucocorticoid receptor (Homo sapiens, UniProt P04150); experiment: Antagonist activity at gal-GR expressed in african green monkey CV1 cells co-expressing MH100 by luciferase reporter gene assay; format: functional, cell-based, CV-1
[4] = molecular target: Oxysterols receptor LXR-beta (Homo sapiens) (UniProt P55055); experiment: Agonist activity at LXRbeta expressed in african green monkey CV1 cells co-expressing LXRE up to 10 uM by luciferase reporter gene assay relative to control; format: functional, cell-based; settings: CV-1
[5] = molecular target: T2, Peroxisome proliferator-activated receptor alpha (Homo sapiens) (UniProt Q07869); experiment: Antagonist activity at PPARalpha expressed in african green monkey CV1 cells co-expressing MH100 by luciferase reporter gene assay; format: functional, cell-based; settings: CV-1
T2 sequence (whole entry): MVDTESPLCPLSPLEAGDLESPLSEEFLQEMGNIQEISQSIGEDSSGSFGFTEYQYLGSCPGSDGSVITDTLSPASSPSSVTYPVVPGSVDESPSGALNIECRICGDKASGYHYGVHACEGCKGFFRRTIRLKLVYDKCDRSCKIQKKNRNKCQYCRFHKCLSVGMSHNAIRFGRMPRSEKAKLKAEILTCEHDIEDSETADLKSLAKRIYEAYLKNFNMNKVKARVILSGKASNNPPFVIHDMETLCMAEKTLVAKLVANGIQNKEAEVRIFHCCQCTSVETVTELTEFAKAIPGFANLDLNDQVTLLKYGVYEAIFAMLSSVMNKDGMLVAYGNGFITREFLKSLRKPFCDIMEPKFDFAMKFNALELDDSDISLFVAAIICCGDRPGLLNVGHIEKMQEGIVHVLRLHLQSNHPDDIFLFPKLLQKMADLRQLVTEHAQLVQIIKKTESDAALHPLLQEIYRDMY

[6] = molecular target: Retinoic acid receptor RXR-alpha (Homo sapiens) (UniProt P19793); experiment: Agonist activity at RXRalpha-LBD expressed in african green monkey CV1 cells co-expressing MH100 up to 10 uM by luciferase reporter gene assay relative to control; format: functional, cell-based; settings: CV-1
[7] = system: Mus musculus; experiment: Reduction of plasma total cholesterol level in western diet-induced hyperlipidemia LDLR knockout mouse model at 3 mg/kg, po administered for 6 weeks; format: functional; design: scale not given: the % may be the effect or the level left
[8] = Half life in CD rat at 3 mg/kg, po; format: ADME, organism-based; design: dose 3 mg/kg, route oral; settings: in vivo

Chain of Retinoic acid receptor RXR-alpha (Homo sapiens) (P19793 whole entry, the tested form may be a part): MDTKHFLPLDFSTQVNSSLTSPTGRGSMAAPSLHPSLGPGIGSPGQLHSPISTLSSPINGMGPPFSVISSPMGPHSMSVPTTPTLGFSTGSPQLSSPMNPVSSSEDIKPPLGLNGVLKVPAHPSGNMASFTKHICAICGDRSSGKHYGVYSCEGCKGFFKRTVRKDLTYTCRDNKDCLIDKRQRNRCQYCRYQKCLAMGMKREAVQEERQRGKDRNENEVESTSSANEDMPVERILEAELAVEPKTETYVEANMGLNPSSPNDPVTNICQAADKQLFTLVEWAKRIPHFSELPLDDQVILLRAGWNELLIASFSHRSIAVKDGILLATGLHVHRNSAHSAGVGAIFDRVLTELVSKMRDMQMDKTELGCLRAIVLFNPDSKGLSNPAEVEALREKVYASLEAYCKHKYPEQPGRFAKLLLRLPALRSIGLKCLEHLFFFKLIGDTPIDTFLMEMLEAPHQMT
Chain of Steroid hormone receptor ERR1 (Homo sapiens) (P11474 whole entry): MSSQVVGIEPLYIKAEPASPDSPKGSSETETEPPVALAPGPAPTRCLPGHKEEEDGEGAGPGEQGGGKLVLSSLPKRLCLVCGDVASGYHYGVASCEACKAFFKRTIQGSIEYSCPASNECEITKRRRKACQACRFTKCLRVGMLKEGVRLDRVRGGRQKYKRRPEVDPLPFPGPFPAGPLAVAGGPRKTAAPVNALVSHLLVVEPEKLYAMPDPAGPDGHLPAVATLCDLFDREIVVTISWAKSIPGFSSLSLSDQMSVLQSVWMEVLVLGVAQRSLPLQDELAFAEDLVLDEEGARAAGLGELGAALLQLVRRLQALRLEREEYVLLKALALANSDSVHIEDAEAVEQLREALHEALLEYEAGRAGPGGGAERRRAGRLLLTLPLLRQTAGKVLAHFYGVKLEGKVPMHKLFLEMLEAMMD
Chain of Oxysterols receptor LXR-beta (Homo sapiens) (P55055 whole entry): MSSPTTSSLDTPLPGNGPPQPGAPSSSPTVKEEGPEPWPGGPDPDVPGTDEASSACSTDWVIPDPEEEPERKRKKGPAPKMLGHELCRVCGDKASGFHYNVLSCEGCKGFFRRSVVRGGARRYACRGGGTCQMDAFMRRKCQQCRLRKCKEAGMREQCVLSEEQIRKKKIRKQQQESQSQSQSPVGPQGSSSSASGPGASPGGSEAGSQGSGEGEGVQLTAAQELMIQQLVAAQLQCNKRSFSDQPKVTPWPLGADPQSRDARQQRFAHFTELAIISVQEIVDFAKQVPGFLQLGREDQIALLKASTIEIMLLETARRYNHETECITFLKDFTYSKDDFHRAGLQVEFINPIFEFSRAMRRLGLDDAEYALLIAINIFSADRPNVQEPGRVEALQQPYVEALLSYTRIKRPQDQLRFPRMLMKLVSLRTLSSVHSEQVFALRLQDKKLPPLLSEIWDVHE
Chain of Glucocorticoid receptor (P04150 whole entry): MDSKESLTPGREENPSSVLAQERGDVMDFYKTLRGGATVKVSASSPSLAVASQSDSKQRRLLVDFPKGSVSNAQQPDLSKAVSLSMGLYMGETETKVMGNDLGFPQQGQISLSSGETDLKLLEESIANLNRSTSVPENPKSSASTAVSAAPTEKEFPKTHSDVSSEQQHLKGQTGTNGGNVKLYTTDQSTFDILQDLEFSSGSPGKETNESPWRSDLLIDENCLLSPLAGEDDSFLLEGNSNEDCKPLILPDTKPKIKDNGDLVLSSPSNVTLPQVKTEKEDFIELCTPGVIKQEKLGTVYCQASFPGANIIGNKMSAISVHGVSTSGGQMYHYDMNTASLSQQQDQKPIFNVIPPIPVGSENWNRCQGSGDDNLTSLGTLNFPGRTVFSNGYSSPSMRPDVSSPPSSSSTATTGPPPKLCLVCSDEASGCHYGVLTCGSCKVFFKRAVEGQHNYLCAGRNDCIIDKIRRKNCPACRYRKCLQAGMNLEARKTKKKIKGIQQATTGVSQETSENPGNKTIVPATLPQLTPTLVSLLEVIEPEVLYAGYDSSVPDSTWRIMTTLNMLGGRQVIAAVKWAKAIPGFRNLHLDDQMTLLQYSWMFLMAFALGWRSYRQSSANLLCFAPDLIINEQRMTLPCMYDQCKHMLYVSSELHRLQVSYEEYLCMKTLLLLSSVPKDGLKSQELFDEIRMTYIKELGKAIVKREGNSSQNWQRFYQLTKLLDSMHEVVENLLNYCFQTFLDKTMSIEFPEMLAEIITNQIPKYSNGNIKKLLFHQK

Activity [1]: inactive
Activity [2]: inactive
IC50 [3]: 10 µM
Activity [4]: inactive
Activity [5]: inactive
Activity [6]: inactive
half-life [8]: 24.6 h
Compound: CC(C)OC(=O)C1=CN(C(=O)c2ccc(F)c(F)c2)CC(C)(C)c2c1[nH]c1ccccc21 [TUROFEXORATE ISOPROPYL]
Activity [7]: 50%
